Experimental data: ChEMBL document CHEMBL1147118, “Efficacy of oseltamivir therapy in ferrets inoculated with different clades of H5N1 influenza virus” (2007)
Calls of active or inactive are those of the source. No cut-off for these calls is given here.

Experiments:
Influenza A virus [1] = experiment: Survival of 10^2 EID50 influenza A/Vietnam/1203/04 H5N1 virus inoculated ferrets at 25 mg/kg after 24 hrs of inoculum for 5 days; type: functional, organism-based; set-up: dose 25 mg/kg
Influenza A virus [2] = experiment: Inhibition of 10^2 EID50 influenza A/Vietnam/1203/04 H5N1 virus replication in ferrets liver at 10 mg/kg after 24 hrs of inoculum for 5 days; type: functional, organism-based; set-up: dose 10 mg/kg
Influenza A virus [3] = experiment: Antiviral activity against 10^6 EID50 influenza A/turkey/15/06 H5N1 virus inoculated ferrets assessed as increase in temperature at 10 mg/kg twice daily after 24 hrs inoculum for 5 days; type: functional, Influenza A virus (A/Turkey/15/2006(H5N1))
Influenza A virus [4] = experiment: Antiviral activity against 10^2 EID50 influenza A/Vietnam/1203/04 H5N1 virus inoculated ferrets assessed as day of death at 5 mg/kg after 4 hrs of inoculum for 5 days; type: functional
Influenza A virus [5] = experiment: Antiviral activity against 10^2 EID50 influenza A/Vietnam/1203/04 H5N1 virus inoculated ferrets assessed as increase in temperature at 5 mg/kg after 4 hrs of inoculum for 5 days; type: functional
Influenza A virus [6] = experiment: Antiviral activity against 10 EID50 influenza A/Vietnam/1203/04 H5N1 virus inoculated ferrets assessed as day of death at 5 mg/kg after 4 hrs of inoculum for 5 days; type: functional
Influenza A virus [7] = experiment: Inhibition of 10^2 EID50 influenza A/Vietnam/1203/04 H5N1 virus replication in ferrets brain at 25 mg/kg after 24 hrs of inoculum for 5 days; type: functional, organism-based; set-up: dose 25 mg/kg
Influenza A virus [8] = experiment: Inhibition of 10^2 EID50 influenza A/Vietnam/1203/04 H5N1 virus replication in ferrets liver at 25 mg/kg after 24 hrs of inoculum for 5 days; type: functional, organism-based; set-up: dose 25 mg/kg
Influenza A virus [9] = experiment: Antiviral activity against 10^6 EID50 influenza A/turkey/15/06 H5N1 virus inoculated ferrets assessed as viral titer in brain at 10 mg/kg after 24 hrs of inoculum for 5 days; type: functional, Influenza A virus (A/Turkey/15/2006(H5N1))
Influenza A virus [10] = experiment: Antiviral activity against 10^2 EID50 influenza A/Vietnam/1203/04 H5N1 virus inoculated ferrets assessed as inhibition of viral replication in small intestine at 5 mg/kg after 4 hrs of inoculum for 5 days; type: functional, organism-based; set-up: dose 5 mg/kg
Influenza A virus [11] = experiment: Survival of 10^2 EID50 influenza A/Vietnam/1203/04 H5N1 virus inoculated ferrets at 5 mg/kg after 4 hrs of inoculum for 5 days; type: functional, organism-based; set-up: dose 5 mg/kg
Influenza A virus [12] = experiment: Survival of 10^2 EID50 influenza A/Vietnam/1203/04 H5N1 virus inoculated ferrets at 10 mg/kg after 24 hrs of inoculum for 5 days; type: functional, organism-based; set-up: dose 10 mg/kg
Influenza A virus [13] = experiment: Survival of 10^6 EID50 influenza A/turkey/15/06 H5N1 virus inoculated ferrets at 10 mg/kg twice daily after 24 hrs inoculum for 5 days; type: functional, organism-based; set-up: dose 10 mg/kg; details: Influenza A virus (A/Turkey/15/2006(H5N1))
Influenza A virus [14] = experiment: Antiviral activity against 10^2 EID50 influenza A/Vietnam/1203/04 H5N1 virus inoculated ferrets assessed as day of death at 25 mg/kg after 24 hrs of inoculum for 5 days; type: functional
Influenza A virus [15] = experiment: Inhibition of 10^2 EID50 influenza A/Vietnam/1203/04 H5N1 virus replication in ferrets lungs at 10 mg/kg after 24 hrs of inoculum for 5 days; type: functional, organism-based; set-up: dose 10 mg/kg
Influenza A virus [16] = experiment: Antiviral activity against 10^2 EID50 influenza A/Vietnam/1203/04 H5N1 virus inoculated ferrets assessed as weight loss at 25 mg/kg after 24 hrs of inoculum for 5 days; type: functional
Influenza A virus [17] = experiment: Antiviral activity against 10 EID50 influenza A/Vietnam/1203/04 H5N1 virus inoculated ferrets assessed as weight loss at 5 mg/kg after 4 hrs of inoculum for 5 days; type: functional
Influenza A virus [18] = experiment: Antiviral activity against 10^6 EID50 influenza A/turkey/15/06 H5N1 virus inoculated ferrets assessed as viral titer in lungs at 10 mg/kg after 24 hrs of inoculum for 5 days; type: functional, Influenza A virus (A/Turkey/15/2006(H5N1))
Influenza A virus [19] = experiment: Antiviral activity against 10^2 EID50 influenza A/Vietnam/1203/04 H5N1 virus inoculated ferrets assessed as inhibition of viral replication in lungs at 5 mg/kg after 4 hrs of inoculum for 5 days; type: functional, organism-based; set-up: dose 5 mg/kg
Influenza A virus [20] = experiment: Antiviral activity against 10^6 EID50 influenza A/turkey/15/06 H5N1 virus inoculated ferrets assessed as weight loss at 10 mg/kg twice daily after 24 hrs inoculum for 5 days; type: functional, Influenza A virus (A/Turkey/15/2006(H5N1))
Influenza A virus [21] = experiment: Inhibition of 10^2 EID50 influenza A/Vietnam/1203/04 H5N1 virus replication in ferrets lungs at 25 mg/kg after 24 hrs of inoculum for 5 days; type: functional, organism-based; set-up: dose 25 mg/kg
Influenza A virus [22] = experiment: Antiviral activity against 10^2 EID50 influenza A/Vietnam/1203/04 H5N1 virus inoculated ferrets assessed as increase in temperature at 25 mg/kg after 24 hrs of inoculum for 5 days; type: functional
Influenza A virus [23] = experiment: Inhibition of influenza A/Vietnam/1203/04 virus replication in ferrets upper respiratory tract at 10 mg/kg twice daily after 24 hrs of inoculum for 5 days; type: functional, organism-based; set-up: dose 10 mg/kg
Influenza A virus [24] = experiment: Antiviral activity against 10^2 EID50 influenza A/Vietnam/1203/04 H5N1 virus inoculated ferrets assessed as inhibition of virus spread in brain at 5 mg/kg after 4 hrs of inoculum for 5days; type: functional, organism-based; set-up: dose 5 mg/kg
Influenza A virus [25] = experiment: Antiviral activity against 10^2 EID50 influenza A/Vietnam/1203/04 H5N1 virus inoculated ferrets assessed as increase in temperature at 10 mg/kg after 24 hrs of inoculum for 5 days; type: functional
Influenza A virus [26] = experiment: Inhibition of 10^2 EID50 influenza A/Vietnam/1203/04 H5N1 virus replication in ferrets spleen at 25 mg/kg after 24 hrs of inoculum for 5 days; type: functional, organism-based; set-up: dose 25 mg/kg
Influenza A virus [27] = experiment: Antiviral activity against 10 EID50 influenza A/Vietnam/1203/04 H5N1 virus inoculated ferrets assessed as increase in temperature at 5 mg/kg after 4 hrs of inoculum for 5 days; type: functional
Influenza A virus [28] = experiment: Antiviral activity against 10^2 EID50 influenza A/Vietnam/1203/04 H5N1 virus inoculated ferrets assessed as maximal change in weight loss at 5 mg/kg after 4 hrs of inoculum for 5 days; type: functional
Influenza A virus [29] = experiment: Antiviral activity against 10^2 EID50 influenza A/Vietnam/1203/04 H5N1 virus inoculated ferrets assessed as inhibition of virus spread in spleen at 5 mg/kg after 4 hrs of inoculum for 5 days; type: functional, organism-based; set-up: dose 5 mg/kg
Influenza A virus [30] = experiment: Inhibition of 10^2 EID50 influenza A/Vietnam/1203/04 H5N1 virus replication in ferrets spleen at 10 mg/kg after 24 hrs of inoculum for 5 days; type: functional, organism-based; set-up: dose 10 mg/kg
Influenza A virus [31] = experiment: Survival of 10 EID50 influenza A/Vietnam/1203/04 H5N1 virus inoculated ferrets at 5 mg/kg after 4 hrs of inoculum for 5 days; type: functional, organism-based; set-up: dose 5 mg/kg
Influenza A virus [32] = experiment: Antiviral activity against 10^2 EID50 influenza A/Vietnam/1203/04 H5N1 virus inoculated ferrets assessed as day of death at 10 mg/kg after 24 hrs of inoculum for 5 days; type: functional
Influenza A virus [33] = experiment: Antiviral activity against 10^2 EID50 influenza A/Vietnam/1203/04 H5N1 virus inoculated ferrets assessed as weight loss at 10 mg/kg after 24 hrs of inoculum for 5 days; type: functional
Influenza A virus [34] = experiment: Antiviral activity against 10^2 EID50 influenza A/Vietnam/1203/04 H5N1 virus inoculated ferrets assessed as inhibition of virus spread in liver at 5 mg/kg after 4 hrs of inoculum for 5 days; type: functional, organism-based; set-up: dose 5 mg/kg

Which results are given for CCOC(=O)C1=C[C@@H](OC(CC)CC)[C@H](NC(C)=O)[C@@H](N)C1 [OSELTAMIVIR]?
Activity (Influenza A virus [1]): Active; Activity (Influenza A virus [2]): Active; Activity (Influenza A virus [3]): 6%; Activity (Influenza A virus [4]): 21 days; Activity (Influenza A virus [5]): 3.4%; Activity (Influenza A virus [6]): >21 days; Activity (Influenza A virus [7]): inactive; Activity (Influenza A virus [8]): Active; log10EID50/g (Influenza A virus [9]): <0.75; Activity (Influenza A virus [10]): Active; Activity (Influenza A virus [11]): Active; Activity (Influenza A virus [12]): inactive; Activity (Influenza A virus [13]): Active; Activity (Influenza A virus [14]): >21 days; Activity (Influenza A virus [15]): Active; Activity (Influenza A virus [16]): 13.4%; Activity (Influenza A virus [17]): 8.8%; log10EID50/g (Influenza A virus [18]): <0.75; Activity (Influenza A virus [19]): Active; Activity (Influenza A virus [20]): 17.9%; Activity (Influenza A virus [21]): Active; Activity (Influenza A virus [22]): 6%; Activity (Influenza A virus [23]): inactive; Activity (Influenza A virus [24]): inactive; Activity (Influenza A virus [25]): 5.7%; Activity (Influenza A virus [26]): Active; Activity (Influenza A virus [27]): 5%; Activity (Influenza A virus [28]): 20.4%; Activity (Influenza A virus [29]): inactive; Activity (Influenza A virus [30]): Active; Activity (Influenza A virus [31]): Active; Activity (Influenza A virus [32]): 7.3 days; Activity (Influenza A virus [33]): 22.1%; Activity (Influenza A virus [34]): inactive
